In patent publication US20230158151A1 (NURIX THERAPEUTICS, INC., priority 2021, published 2023):
Read-outs that look alike come from different tables or passages of the source.

Molecular target: T1, ITK (Homo sapiens, UniProt Q08881)
T1 construct: Compounds provided herein were assayed in vitro with ITK HiBit cell lines; endogenous in cells; host or cells: Molt4 (ATCC CRL-1552 [sic]), monoclonal clone 1C10
T1 sequence (Q08881 1-620): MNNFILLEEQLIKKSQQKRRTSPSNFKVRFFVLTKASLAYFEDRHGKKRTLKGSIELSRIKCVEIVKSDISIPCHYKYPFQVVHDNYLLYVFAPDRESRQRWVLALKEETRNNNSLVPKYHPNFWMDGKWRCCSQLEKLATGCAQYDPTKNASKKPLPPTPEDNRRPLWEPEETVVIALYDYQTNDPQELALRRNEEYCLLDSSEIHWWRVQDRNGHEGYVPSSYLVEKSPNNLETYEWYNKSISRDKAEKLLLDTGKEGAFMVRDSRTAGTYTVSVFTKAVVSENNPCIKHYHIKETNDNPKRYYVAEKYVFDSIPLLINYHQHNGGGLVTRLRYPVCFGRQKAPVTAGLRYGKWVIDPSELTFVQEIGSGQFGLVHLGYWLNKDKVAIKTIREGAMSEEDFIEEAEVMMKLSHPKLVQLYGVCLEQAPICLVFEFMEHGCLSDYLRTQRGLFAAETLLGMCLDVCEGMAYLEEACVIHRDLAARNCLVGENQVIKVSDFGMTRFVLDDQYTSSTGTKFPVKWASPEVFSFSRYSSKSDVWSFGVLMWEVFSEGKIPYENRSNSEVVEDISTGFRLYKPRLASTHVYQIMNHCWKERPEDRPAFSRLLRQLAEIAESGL
Experiment: ITK Degradation HiBiT Assay
Format: cell-based
Procedure: Compounds provided herein were assayed in vitro with ITK HiBit cell lines. Compound dilution series (11-point, 5 fold dilutions in DMSO, columns 2-12 with replicate in rows A/B, C/D, E/F, G, H at 2000× the final required concentrations were prepared in 96 well plate (Falcon, cat. no. 353077). Column 1, rows A-H were control DMSO. The 2000× solutions ranged from 2 mM to 1.024 nM (final assay concentration range 1 μM to […]). The 2000× solutions were added to cells in […], for a final DMSO concentration of 0.5% and final assay compound concentration of 1×. For the cells, C-terminal HiBiT-tagged Molt4 cells (ATCC CRL-1552, monoclonal cell line clone 1C10) were plated at 1×10^6 cells/mL, 100 μL/well ([…]) in complete RPMI (10% FBS, 1% L-glutamine). The cells were incubated with compound 32 and compound 30 for 4 hrs at 32° C./6% CO2.
Following incubation, 100 μL of complete Nano-Glo HiBiT Lytic Detection Reagent (Nano-Glo HiBiT Lytic Buffer with 1:50 Nano-Glo HiBiT Lytic Substrate and 1:100 LgBiT Protein; Promega cat. no. N3O40) was added. Cells were further incubated for 10 min at room temperature (RT). Luminescence units (LU) were read on an EnVision plate reader (Perkin Elmer, 0.1 sec per well). Percent ITK remaining per sample was calculated as follows: […]
Using Graphpad Prism, % ITK remaining values were plotted as a function of compound concentration. To determine DC50 and Dmax values, resulting curves were fit to the Prism curve-fitting equation “log(inhibitor) vs response−Variable slope (four parameters)” (reported best fit value IC50 used as DC50). ITK was measured with antibody-based MSD (Meso-Scale Discovery) assays shown below.

[1] = C-terminal HiBiT-tagged Molt4 cells, 4 hrs incubation
[2] = MOLT-4, C-terminal HiBiT-tagged Molt4 cells, 4 hrs incubation, read-out: HiBiT DMax (%)

## CC1(C)CCc2c(-c3cc4ccc(N5CCC6(CCN(CC7CCN(c8ccc(C9CCC(=O)NC9=O)cn8)CC7)CC6)C5=O)cc4[nH]3)n[nH]c2C1 (centres unmarked) [Compound 24, 3-(6-(4-((2-(2-(6,6-dimethyl-4,5,6,7-tetrahydro-1H-indazol-3-yl)-1H-indol-6-yl)-1-oxo-2,8-diazaspiro[4.5]decan-8-yl)methyl)piperidin-1-yl)pyridin-3-yl)piperidine-2,6-dione]
[1]
  DC50: 0.6 nM
[2]
  Dmax: 92%

## C[C@@H](C(=O)N(C)c1ccc2cc(-c3n[nH]c4c3CCC(C)(C)C4)[nH]c2c1)N1CCN(CC2CCN(c3ccc(N4CCC(=O)NC4=O)cn3)CC2)CC1 [Compound 31, (S)—N-(2-(6,6-dimethyl-4,5,6,7-tetrahydro-1H-indazol-3-yl)-1H-indol-6-yl)-2-(4-((1-(5-(2,4-dioxotetrahydropyrimidin-1(2H)-yl)pyridin-2-yl)piperidin-4-yl)methyl)piperazin-1-yl)-N-methylpropanamide]
[2]
  Dmax: 84%

## C[C@@H](C(=O)N(C)c1ccc2cc(-c3n[nH]c4c3C[C@@H]3C(F)(F)[C@]3(C)C4)[nH]c2c1)N1CCN(CC2CCN(c3ccc(N4CCC(=O)NC4=O)cn3)CC2)CC1 [Compound 29, (S)—N-(2-((4aS,5aR)-5,5-difluoro-5a-methyl-1,4,4a,5,5a,6-hexahydrocyclopropa[f]indazol-3-yl)-1H-indol-6-yl)-2-(4-((1-(5-(2,4-dioxotetrahydropyrimidin-1(2H)-yl)pyridin-2-yl)piperidin-4-yl)methyl)piperazin-1-yl)-N-methylpropanamide]
[2]
  Dmax: 76%

## CC1(C)CCc2c(-c3cc4ccc(C(=O)N5CCN(CC6CCN(c7ccc(C8CCC(=O)NC8=O)cc7)CC6)CC5)cc4[nH]3)n[nH]c2C1 (centres unmarked) [Compound 38, 3-(4-(4-((4-(2-(6,6-dimethyl-4,5,6,7-tetrahydro-1H-indazol-3-yl)-1H-indole-6-carbonyl)piperazin-1-yl)methyl)piperidin-1-yl)phenyl)piperidine-2,6-dione]
[1]
  DC50: 1.5 nM
[2]
  Dmax: 74%

## C[C@@]12Cc3[nH]nc(-c4cc5ccc(N6CCC7(CCN(CC8CCN(c9ccc(C%10CCC(=O)NC%10=O)cn9)CC8)CC7)C6=O)cc5[nH]4)c3C[C@@H]1C2(F)F (stereo partly drawn) [Compound 28, 3-(6-(4-((2-(2-((4aS,5aR)-5,5-difluoro-5a-methyl-1,4,4a,5,5a,6-hexahydrocyclopropa[f]indazol-3-yl)-1H-indol-6-yl)-1-oxo-2,8-diazaspiro[4.5]decan-8-yl)methyl)piperidin-1-yl)pyridin-3-yl)piperidine-2,6-dione]
[2]
  Dmax: 91%

## CC1(C)CCc2c(-c3cc4ccc(C(=O)N5CCC(CN6CCC(c7ccc(C8CCC(=O)NC8=O)cc7)CC6)CC5)cc4[nH]3)n[nH]c2C1 (centres unmarked) [Compound 39, 3-(4-(1-((1-(2-(6,6-dimethyl-4,5,6,7-tetrahydro-1H-indazol-3-yl)-1H-indole-6-carbonyl)piperidin-4-yl)methyl)piperidin-4-yl)phenyl)piperidine-2,6-dione]
[1]
  DC50: 0.09 nM
[2]
  Dmax: 82%

## C[C@@]12Cc3[nH]nc(C(=O)Nc4cnn(CC5CN(C(=O)C6CN(c7ccc(C8CCC(=O)NC8=O)cn7)C6)C5)c4)c3C[C@@H]1C2(F)F (stereo partly drawn) [Compound 23, (4aS,5aR)—N-(1-((1-(1-(5-(2,6-dioxopiperidin-3-yl)pyridin-2-yl)azetidine-3-carbonyl)azetidin-3-yl)methyl)-1H-pyrazol-4-yl)-5,5-difluoro-5a-methyl-1,4,4a,5,5a,6-hexahydrocyclopropa[f]indazole-3-carboxamide]
[2]
  Dmax: 85%

## C[C@@]12Cc3[nH]nc(C(=O)Nc4cnn(CC5CN(C(=O)C6CCN(c7ccc(C8CCC(=O)NC8=O)cn7)CC6)C5)c4)c3C[C@@H]1C2(F)F (stereo partly drawn) [Compound 22, (4aS,5aR)—N-(1-((1-(1-(5-(2,6-dioxopiperidin-3-yl)pyridin-2-yl)piperidine-4-carbonyl)azetidin-3-yl)methyl)-1H-pyrazol-4-yl)-5,5-difluoro-5a-methyl-1,4,4a,5,5a,6-hexahydrocyclopropa[f]indazole-3-carboxamide]
[2]
  Dmax: 90%

## CN(C(=O)CCC1CCN(c2ccc(C3CCC(=O)NC3=O)cn2)CC1)c1ccc2cc(-c3n[nH]c4c3C[C@@H]3C(F)(F)[C@]3(C)C4)[nH]c2c1 (stereo partly drawn) [Compound 4, N-(2-((4aS,5aR)-5,5-difluoro-5a-methyl-1,4,4a,5,5a,6-hexahydrocyclopropa[f]indazol-3-yl)-1H-indol-6-yl)-3-(1-(5-(2,6-dioxopiperidin-3-yl)pyridin-2-yl)piperidin-4-yl)-N-methylpropanamide]
[2]
  Dmax: 82%

## CC1(C)CCc2c(-c3cc4ccc(C(=O)N5CCN(CC6CCN(c7ccc(C8CCC(=O)NC8=O)cn7)CC6)CC5)cc4[nH]3)n[nH]c2C1 (centres unmarked) [Compound 26, 3-(6-(4-((4-(2-(6,6-dimethyl-4,5,6,7-tetrahydro-1H-indazol-3-yl)-1H-indole-6-carbonyl)piperazin-1-yl)methyl)piperidin-1-yl)pyridin-3-yl)piperidine-2,6-dione]
[2]
  Dmax: 87%

## C[C@@H](C(=O)N(C)c1ccc2cc(-c3n[nH]c4c3CCC(C)(C)C4)[nH]c2c1)N1CCN(CC2CCN(c3ccc(C4CCC(=O)NC4=O)cn3)CC2)CC1 (stereo partly drawn) [Compound 32, (2S)—N-(2-(6,6-dimethyl-4,5,6,7-tetrahydro-1H-indazol-3-yl)-1H-indol-6-yl)-2-(4-((1-(5-(2,6-dioxopiperidin-3-yl)pyridin-2-yl)piperidin-4-yl)methyl)piperazin-1-yl)-N-methylpropanamide]
ITK degradation in HiBiT cell line, FIG. 1, read-out: Dmax values (FIG. 1)
  Dmax: 90 to 100%
[2]
  Dmax: 89%

## CN(C(=O)CC1CCN(CC2CCN(c3ccc(C4CCC(=O)NC4=O)cn3)CC2)CC1)c1ccc2cc(-c3n[nH]c4c3C[C@@H]3C(F)(F)[C@]3(C)C4)[nH]c2c1 (stereo partly drawn) [Compound 6, N-(2-((4aS,5aR)-5,5-difluoro-5a-methyl-1,4,4a,5,5a,6-hexahydrocyclopropa[f]indazol-3-yl)-1H-indol-6-yl)-2-(1-((1-(5-(2,6-dioxopiperidin-3-yl)pyridin-2-yl)piperidin-4-yl)methyl)piperidin-4-yl)-N-methylacetamide]
[2]
  Dmax: 85%

## CC1(C)CCc2c(-c3cc4ccc(C(=O)N5CCC(CN6CCN(c7ccc(C8CCC(=O)NC8=O)cc7)CC6)CC5)cc4[nH]3)n[nH]c2C1 (centres unmarked) [Compound 37, 3-(4-(4-((1-(2-(6,6-dimethyl-4,5,6,7-tetrahydro-1H-indazol-3-yl)-1H-indole-6-carbonyl)piperidin-4-yl)methyl)piperazin-1-yl)phenyl)piperidine-2,6-dione]
[1]
  DC50: 2.6 nM
[2]
  Dmax: 79%

## CC1(C)CCc2c(-c3cc4ccc(C(=O)N5CCC(CN6CCN(c7ccc(C8CCC(=O)NC8=O)nc7)CC6)CC5)cc4[nH]3)n[nH]c2C1 (centres unmarked) [Compound 35, 3-(5-(4-((1-(2-(6,6-dimethyl-4,5,6,7-tetrahydro-1H-indazol-3-yl)-1H-indole-6-carbonyl)piperidin-4-yl)methyl)piperazin-1-yl)pyridin-2-yl)piperidine-2,6-dione]
[1]
  DC50: < 0.01 nM
[2]
  Dmax: 86%
